# According to patent US20120101110A1, “Diaza-spiro[5.5]undecanes” (priority 2010, published 2012):
# How the values were obtained:
# [1] = target: T1, human orexin 1 receptors (Homo sapiens, UniProt O43613); test: Radioligand binding assay ([3H]-SB649868 competition), hOx1R; conditions: competition with about 1 nM [3H]-SB649868; CHO or HEK cell membranes expressing human orexin 1 receptor
# T1 sequence (O43613 1-425): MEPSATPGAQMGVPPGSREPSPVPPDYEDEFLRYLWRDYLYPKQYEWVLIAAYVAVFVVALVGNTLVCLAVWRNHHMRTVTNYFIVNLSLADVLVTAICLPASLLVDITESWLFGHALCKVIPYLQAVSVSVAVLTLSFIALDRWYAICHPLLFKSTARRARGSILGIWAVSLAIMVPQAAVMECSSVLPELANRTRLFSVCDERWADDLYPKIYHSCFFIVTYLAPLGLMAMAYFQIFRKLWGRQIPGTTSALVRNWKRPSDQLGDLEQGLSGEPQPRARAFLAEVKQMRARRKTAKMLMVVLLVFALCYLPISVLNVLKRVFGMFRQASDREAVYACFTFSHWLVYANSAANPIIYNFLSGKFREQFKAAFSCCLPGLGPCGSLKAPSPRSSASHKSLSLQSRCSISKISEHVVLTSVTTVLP
# Procedure: (§1) The cell pellet was either stored at −80° C. or used directly. Before the experiments, cell membranes were re-suspended in binding assay buffer (10 mM HEPES, 0.5% (w/v) bovine serum albumin, pH 7.5) by homogenisation with a Polytron homogeniser at 50 Hz for 20 s. Cell membranes were also used as made available by commercial providers.
# (§2) Bound radioactivity was measured, and data were analysed with the program XLFIT or Graphpad Prism. Protein concentration was determined according to the Bradford/BioRad Protein Assay Kit.
# (§3) In competition experiments, cell homogenates (150 μl) were incubated in assay buffer (10 mM HEPES, pH 7.5, 0.5% (w/v) bovine serum albumin, 5 mM MgCl2, 1 mMCaCl2, and tween 0.05%) for 1 h at room temperature with about 1 nM of the radioligand [^3H]-SB649868, 66 Ci/mmole, 50 μl), and with various concentrations of compounds of the invention (50 μl) in triplicates; non-specific binding was determined in the presence of almorexant (10 μM). Reactions were terminated by vacuum filtration, 3 washes of ice cold wash buffer (Tris-HCl pH 7.4/10 mM, with NaCl 154 mM). Competition data is expressed in Table 2 as Kd [μM].
# [2] = target: T2, human orexin 2 receptors (Homo sapiens, UniProt O43614); test: Radioligand binding assay ([3H]-SB649868 competition), hOx2R; conditions: competition with about 1 nM [3H]-SB649868; CHO or HEK cell membranes expressing human orexin 2 receptor; read-out: binding hOx2R Kd
# T2 sequence (O43614 1-444): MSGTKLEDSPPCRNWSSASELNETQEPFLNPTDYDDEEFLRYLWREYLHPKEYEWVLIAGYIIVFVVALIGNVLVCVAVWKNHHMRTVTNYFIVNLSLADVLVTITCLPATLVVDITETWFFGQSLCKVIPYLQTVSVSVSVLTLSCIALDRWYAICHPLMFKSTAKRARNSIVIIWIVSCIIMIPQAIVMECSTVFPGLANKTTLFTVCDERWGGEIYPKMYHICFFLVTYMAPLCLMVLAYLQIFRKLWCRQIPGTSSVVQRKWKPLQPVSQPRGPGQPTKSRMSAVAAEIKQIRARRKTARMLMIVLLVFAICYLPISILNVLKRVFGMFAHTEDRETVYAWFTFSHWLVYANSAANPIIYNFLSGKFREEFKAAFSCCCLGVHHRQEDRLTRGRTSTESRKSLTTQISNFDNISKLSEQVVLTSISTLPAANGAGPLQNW
# Procedure: as §1, §2
# as §3, with “μM).” for “μM). Reactions were terminated by vacuum filtration, 3 washes of ice cold wash buffer (Tris-HCl pH 7.4/10 mM, with NaCl 154 mM). Competition data is expressed in Table 2 as Kd [μM].”
# [3] = target: T2, human orexin 2 receptors; test: Calcium accumulation in cells (FLIPR), hOx2R; type: cell-based; conditions: cells expressing human orexin 2 receptor; inhibition of orexin A-induced calcium accumulation; Cheng and Prusoff correction
# [4] = target: T1, human orexin 1 receptors; test: Calcium accumulation in cells (FLIPR), hOx1R; conditions: for inhibition at 10 µM: read-out: FLIPR hOx1R % inhibition value
Kd [1],Kd [2],Structure (SMILES),Ki [3],Ki [4],inhibition at 10 µM [4]
52 nM,3 nM,"COC(=O)c1ccc2[nH]cc(CN3CCCC4(CCN(c5nc(C)cc(C)n5)CC4)C3=O)c2c1 [Example 115, Methyl 3-((9-(4,6-dimethylpyrimidin-2-yl)-1-oxo-2,9-diazaspiro[5.5]undecan-2-yl)methyl)-1H-indole-5-carboxylate]",,,
,,"COc1cccc(N2CCC3(CCCN(Cc4c[nH]c5ccccc45)C3=O)CC2)c1 [Example 60, 2-((1H-indol-3-yl)methyl)-9-(3-methoxyphenyl)-2,9-diazaspiro[5.5]undecan-1-one]",228 nM,3110 nM,
,,"COc1cncc(N2CCC3(CCCN(Cc4c[nH]c5ncccc45)C3=O)CC2)n1 [Example 8, 2-((1H-pyrrolo[2,3-b]pyridin-3-yl)methyl)-9-(6-methoxypyrazin-2-yl)-2,9-diazaspiro[5.5]undecan-1-one]",276 nM,,31%
,,"Cn1cc(CN2CCCC3(CCN(c4cncc(Cl)n4)CC3)C2=O)c2ccccc21 [Example 53, 9-(6-chloropyrazin-2-yl)-2-((1-methyl-1H-indol-3-yl)methyl)-2,9-diazaspiro[5.5]undecan-1-one]",420 nM,2740 nM,
,,"Cc1cnc(N2CCC3(CCCN(Cc4c[nH]c5ccccc45)C3=O)CC2)cn1 [Example 72, 2-((1H-indol-3-yl)methyl)-9-(5-methylpyrazin-2-yl)-2,9 diazaspiro[5.5]undecan-1-one]",280 nM,,16%
,,"Cc1cc(N2CCC3(CCCN(Cc4c[nH]c5ccccc45)C3=O)CC2)nc(C)n1 [Example 71, 2-((1H-indol-3-yl)methyl)-9-(2,6-dimethylpyrimidin-4-yl)-2,9-diazaspiro[5.5]undecan-1-one]",166 nM,,31%
,,"Cc1cc(N2CCC3(CCCN(Cc4c[nH]c5ccccc45)C3=O)CC2)cc(C)n1 [Example 63, 2-((1H-indol-3-yl)methyl)-9-(2,6-dimethylpyridin-4-yl)-2,9-diazaspiro[5.5]undecan-1-one]",1280 nM,,16%
,,"Cc1ccnc(N2CCC3(CCCN(Cc4ccccc4-n4nccn4)C3=O)CC2)n1 [Example 24, 2-(2-(2H-1,2,3-triazol-2-yl)benzyl)-9-(4-methylpyrimidin-2-yl)-2,9-diazaspiro[5.5]undecan-1-one]",509 nM,,< 10%
,,"COCc1cccc(CN2CCCC3(CCN(c4nc(C)cc(C)n4)CC3)C2=O)c1 [Example 125, 9-(4,6-dimethylpyrimidin-2-yl)-2-(3-(methoxymethyl)benzyl)-2,9-diazaspiro[5.5]undecan-1-one]",177 nM,,22%
,,"COc1cc(N2CCC3(CCCN(Cc4c[nH]c5ccccc45)C3=O)CC2)ncn1 [Example 87, 2-((1H-indol-3-yl)methyl)-9-(6-methoxypyrimidin-4-yl)-2,9-diazaspiro[5.5]undecan-1-one]",351 nM,,20%
,,"CC(C)c1ccnc(N2CCC3(CCCN(Cc4c[nH]c5ccccc45)C3=O)CC2)n1 [Example 50, 2-((1H-indol-3-yl)methyl)-9-(4-isopropylpyrimidin-2-yl)-2,9-diazaspiro[5.5]undecan-1-one]",223 nM,1860 nM,
,,"Cc1cncc(N2CCC3(CCCN(Cc4c[nH]c5ncccc45)C3=O)CC2)n1 [Example 19, 2-((1H-pyrrolo[2,3-b]pyridin-3-yl)methyl)-9-(6-methylpyrazin-2-yl)-2,9-diazaspiro[5.5]undecan-1-one]",147 nM,,31%
,,"COCc1cccc(N2CCC3(CCCN(Cc4c[nH]c5ccccc45)C3=O)CC2)n1 [Example 73, 2-((1H-indol-3-yl)methyl)-9-(6-(methoxymethyl)pyridin-2-yl)-2,9-diazaspiro[5.5]undecan-1-one]",639 nM,,30%
,,"Cc1cccnc1N1CCC2(CCCN(Cc3c[nH]c4ccccc34)C2=O)CC1 [Example 66, 2-((1H-indol-3-yl)methyl)-9-(3-methylpyridin-2-yl)-2,9-diazaspiro[5.5]undecan-1-one]",991 nM,,36%
,,"Cc1ccnc(N2CCC3(CCCN(Cc4cccc(-c5ncccn5)c4)C3=O)CC2)n1 [Example 30, 9-(4-methylpyrimidin-2-yl)-2-(3-(pyrmidin-2-yl)benzyl)-2,9-diazaspiro[5.5]undecan-1-one]",686 nM,,48%
,,"COCc1ccccc1CN1CCCC2(CCN(c3nc(C)cc(C)n3)CC2)C1=O [Example 126, 9-(4,6-dimethylpyrimidin-2-yl)-2-(2-(methoxymethyl)benzyl)-2,9-diazaspiro[5.5]undecan-1-one]",140 nM,,31%
,,"COc1cncc(N2CCC3(CCCC(=O)N3Cc3c[nH]c4ccccc34)CC2)n1 [Example 55, 1-((1H-indol-3-yl)methyl)-9-(6-methoxypyrazin-2-yl)-1,9-diazaspiro[5.5]undecan-2-one]",727 nM,,40%
,,"COc1ccc(N2CCC3(CCCN(Cc4c[nH]c5ccccc45)C3=O)CC2)cc1OC [Example 59, 2-((1H-indol-3-yl)methyl)-9-(3,4-dimethoxyphenyl)-2,9-diazaspiro[5.5]undecan-1-one]",1380 nM,,15%
,,"CCc1ccnc(N2CCC3(CCCN(Cc4c[nH]c5ccccc45)C3=O)CC2)n1 [Example 79, 2-((1H-indol-3-yl)methyl)-9-(4-ethylpyrimidin-2-yl)-2,9-diazaspiro[5.5]undecan-1-one]",126 nM,708 nM,
,,"O=C1N(Cc2c[nH]c3ccccc23)CCCC12CCN(c1nccc(C(F)(F)F)n1)CC2 [Example 49, 2-((1H-indol-3-yl)methyl)-9-(4-(trifluoromethyl)pyrimidin-2-yl)-2,9-diazaspiro[5.5]undecan-1-one]",190 nM,2180 nM,
,,"Cc1cnc(C)c(N2CCC3(CCCN(Cc4c[nH]c5ccccc45)C3=O)CC2)n1 [Example 86, 2-((1H-indol-3-yl)methyl)-9-(3,6-dimethylpyrazin-2-yl)-2,9-diazaspiro[5.5]undecan-1-one]",545 nM,,22%
,,"O=C1N(Cc2c[nH]c3ncccc23)CCCC12CCN(c1cncc(Cl)n1)CC2 [Example 18, 2-((1H-pyrrolo[2,3-b]pyridin-3-yl)methyl)-9-(6-chloropyrazin-2-yl)-2,9-diazaspiro[5.5]undecan-1-one]",123 nM,3200 nM,
,,"N#Cc1ccc(N2CCC3(CCCC(=O)N3Cc3cccc4[nH]ccc34)CC2)nc1 [Example 14, 6-(1-((1H-indol-4-yl)methyl)-2-oxo-1,9-diazaspiro[5.5]undecan-9-yl)nicotinonitrile]",200 nM,,13%
,,"Cc1cncc(N2CCC3(CCCN(Cc4c[nH]c5ccccc45)C3=O)CC2)c1 [Example 58, 2-((1H-indol-3-yl)methyl)-9-(5-methylpyridin-3-yl)-2,9-diazaspiro[5.5]undecan-1-one]",156 nM,,31%
,,"Cc1cc(C)nc(N2CCC3(CCCN(Cc4c(-c5ccccc5)noc4C)C3=O)CC2)n1 [Example 23, 9-(4,6-dimethylpyrimidin-2-yl)-2-((5-methyl-3-phenylisoxazol-4-yl)methyl)-2,9-diazaspiro[5.5]undecan-1-one]",115 nM,2880 nM,
